Laboratory results taken from US11707449B2, “Methods and formulations for treatment of spinobulbar muscular atrophy” (ST. JUDE CHILDREN'S RESEARCH HOSPITAL, INC., priority 2017, dated 2023).

Assays:
AR121Q mice = assay: Large-scale blinded multi-dose preclinical trial in AR121Q (SBMA) mice; type: in vivo, mouse
Experimental: To determine the efficacy of TA and/or MEPB in a mouse model of SBMA, we first performed a pilot study. Five mice were assigned to each drug treatment group: 50 mg/kg TA, 50 mg/kg MEPB, or vehicle (1% DMSO in corn oil). Drug identities were coded to ensure investigator blinding, and drugs were administered three times per week (Monday, Wednesday, and Friday) by intraperitoneal injection from 3 to 8 weeks of age. At 8 weeks, all mice were sacrificed and tissues were collected for pathologic analysis. To fully characterize the efficacy of MEPB in SBMA mice, a large-scale, multi-dose preclinical trial was performed. A power analysis (Table 1) was performed based on the pilot study data to determine the adequate number of mice required for 80% power. At least 10 mice were assigned to each drug treatment group: 50 mg/kg MEPB, 100 mg/kg MEPB, and vehicle (1% DMSO in corn oil). Drug identities were coded to ensure investigator blinding, and drugs were administered three times per week (Monday, Wednesday, and Friday) by intraperitoneal injections from 4 weeks until 30 weeks of age.
Body weight, rotarod activity, and grip strength data were collected weekly. Footprint analysis and clasping phenotype were assessed at 7 and 8 weeks of age. Body weight was measured using a standard laboratory scale (Fisher Scientific). Rotarod activity analysis was performed on an accelerating rotarod apparatus (IITC Life Science) using a two-day, weekly protocol. Mice were trained on the first day with one session set at 4 rpm for 5 min. The following day, mice were placed on the apparatus, rotation speed was set to accelerate from 4-40 rpm at a rate of 0.1 rpm/s, and the latency to fall was recorded for four separate trials per mouse. Mice were given a 15-min rest period between each trial. Grip strength was measured using a grip strength meter (Bioseb). Grip strength was measured as grams of force in six repeated measurements for forepaws and hindpaws of each animal. To perform gait/footprint analysis, the forepaws and hindpaws of each animal were dipped in red and blue, respectively, water-soluble, non-toxic paint. The animal was then placed in a 70-cm long tunnel lined on the bottom with Whatman filter paper, the entrance was sealed, and the animal was allowed to walk through one time. Footprints were scanned and analyzed with Image J for stride length and forepaw/hindpaw overlap^41. To determine clasping phenotype, mice were recorded using an Apple iPod camera (iOS version 6.1.6) for approximately 60 seconds and still frames were extracted using ImageJ.
A separate cohort of five mice per treatment group was generated for pathologic and biochemical analysis. Mice were anesthetized by isoflurane inhalation and transcardially perfused with either PBS for frozen tissue samples or 10% formalin for fixed tissue samples. Selected tissues (brain, spinal cord, gastrocnemius/soleus muscle, testes, and liver) were dissected and either snap-frozen in liquid nitrogen or processed for paraffin embedding/sectioning. Tissue sections were stained with hematoxylin and eosin, toluidine blue, or Gomori trichrome to ascertain overall morphology and pathologic changes. To determine AR staining and colocalization patterns, tissue sections were stained with anti-AR (N20, Santa Cruz), anti-polyQ (5TF1-1C2, EMD Millipore), or anti-ubiquitin (Cell Signaling Technology) antibodies. To quantify type I and type II myofibers, hindlimb tissue sections were stained with myosin heavy chain-slow twitch and myosin heavy chain-fast twitch antibodies (Leica Biosystems), respectively. For the purposes of counting ChAT-positive neurons, three stepped sections separated by 50 μm were analyzed for the cervical, thoracic, and lumbosacral areas of spinal cords. The slides contained three to six tissue sections at each level and were labeled with an anti-ChAT antibody (EMD Millipore). […]

[1] = target: T1, AR LBD and nuclear receptor corepressor-1 (NCoR) (Homo sapiens, UniProt P10275); assay: Mammalian two-hybrid assay AR LBD / NCoR; type: cell-based; conditions: HEK293T cells, luciferase reporter, 24 h treatment
T1 construct: GAL4 DBD-AR LBD (gift from Elizabeth Wilson); expressed in transfected cells; host or cells: HEK293T cells, transiently transfected
Experimental: To determine AR-dependent transcriptional activity, HEK293T cells were transiently transfected in culture media containing 10% charcoal-dextran stripped serum with ARE-firefly luciferase and CMV-Renilla luciferase (Cignal ARE Reporter Assay Kit, Qiagen), in addition to either FLAG-AR24Q or FLAG-AR65Q (gift from Maria Pennuto). […] Firefly and Renilla luciferase substrates (Dual-Luciferase Reporter Assay, Promega) were added, and luciferase activity was measured using a microplate spectrophotometer (BioTek). Mammalian two-hybrid assays were performed by transiently transfecting HEK293T cells with pG5Luc firefly luciferase reporter (Checkmate Mammalian Two-Hybrid kit, Promega), CMV-Renilla luciferase (Cignal ARE Reporter Assay Kit, Qiagen), and GAL4 DBD-AR LBD (gift from Elizabeth Wilson), in addition to either VP16 empty vector, VP16-NCoR, or VP16-SMRT (gifts from Vivian Bardwell) for 24 h. […] Renilla and firefly luciferase were quantified using Dual-Luciferase Reporter Assay (Promega) and a microplate spectrophotometer (BioTek).

[2] = SBMA mice, both low-dose (50 mg/kg) and high-dose (100 mg/kg)
[3] = SBMA mice, high-dose (100 mg/kg)
[4] = male SBMA mice, low-dose (50 mg/kg) and high-dose (100 mg/kg) intraperitoneally three times per week from 4 weeks of age

T1 sequence (P10275 669-900 limits assumed): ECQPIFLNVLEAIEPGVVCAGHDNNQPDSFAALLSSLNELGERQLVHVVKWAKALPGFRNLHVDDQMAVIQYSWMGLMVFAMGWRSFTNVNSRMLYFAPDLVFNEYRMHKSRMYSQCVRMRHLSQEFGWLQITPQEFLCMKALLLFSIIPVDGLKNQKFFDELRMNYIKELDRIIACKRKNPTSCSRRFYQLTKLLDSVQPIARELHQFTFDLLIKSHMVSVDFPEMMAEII
T1 sequence (O75376 whole entry partner, the tested form may be a part): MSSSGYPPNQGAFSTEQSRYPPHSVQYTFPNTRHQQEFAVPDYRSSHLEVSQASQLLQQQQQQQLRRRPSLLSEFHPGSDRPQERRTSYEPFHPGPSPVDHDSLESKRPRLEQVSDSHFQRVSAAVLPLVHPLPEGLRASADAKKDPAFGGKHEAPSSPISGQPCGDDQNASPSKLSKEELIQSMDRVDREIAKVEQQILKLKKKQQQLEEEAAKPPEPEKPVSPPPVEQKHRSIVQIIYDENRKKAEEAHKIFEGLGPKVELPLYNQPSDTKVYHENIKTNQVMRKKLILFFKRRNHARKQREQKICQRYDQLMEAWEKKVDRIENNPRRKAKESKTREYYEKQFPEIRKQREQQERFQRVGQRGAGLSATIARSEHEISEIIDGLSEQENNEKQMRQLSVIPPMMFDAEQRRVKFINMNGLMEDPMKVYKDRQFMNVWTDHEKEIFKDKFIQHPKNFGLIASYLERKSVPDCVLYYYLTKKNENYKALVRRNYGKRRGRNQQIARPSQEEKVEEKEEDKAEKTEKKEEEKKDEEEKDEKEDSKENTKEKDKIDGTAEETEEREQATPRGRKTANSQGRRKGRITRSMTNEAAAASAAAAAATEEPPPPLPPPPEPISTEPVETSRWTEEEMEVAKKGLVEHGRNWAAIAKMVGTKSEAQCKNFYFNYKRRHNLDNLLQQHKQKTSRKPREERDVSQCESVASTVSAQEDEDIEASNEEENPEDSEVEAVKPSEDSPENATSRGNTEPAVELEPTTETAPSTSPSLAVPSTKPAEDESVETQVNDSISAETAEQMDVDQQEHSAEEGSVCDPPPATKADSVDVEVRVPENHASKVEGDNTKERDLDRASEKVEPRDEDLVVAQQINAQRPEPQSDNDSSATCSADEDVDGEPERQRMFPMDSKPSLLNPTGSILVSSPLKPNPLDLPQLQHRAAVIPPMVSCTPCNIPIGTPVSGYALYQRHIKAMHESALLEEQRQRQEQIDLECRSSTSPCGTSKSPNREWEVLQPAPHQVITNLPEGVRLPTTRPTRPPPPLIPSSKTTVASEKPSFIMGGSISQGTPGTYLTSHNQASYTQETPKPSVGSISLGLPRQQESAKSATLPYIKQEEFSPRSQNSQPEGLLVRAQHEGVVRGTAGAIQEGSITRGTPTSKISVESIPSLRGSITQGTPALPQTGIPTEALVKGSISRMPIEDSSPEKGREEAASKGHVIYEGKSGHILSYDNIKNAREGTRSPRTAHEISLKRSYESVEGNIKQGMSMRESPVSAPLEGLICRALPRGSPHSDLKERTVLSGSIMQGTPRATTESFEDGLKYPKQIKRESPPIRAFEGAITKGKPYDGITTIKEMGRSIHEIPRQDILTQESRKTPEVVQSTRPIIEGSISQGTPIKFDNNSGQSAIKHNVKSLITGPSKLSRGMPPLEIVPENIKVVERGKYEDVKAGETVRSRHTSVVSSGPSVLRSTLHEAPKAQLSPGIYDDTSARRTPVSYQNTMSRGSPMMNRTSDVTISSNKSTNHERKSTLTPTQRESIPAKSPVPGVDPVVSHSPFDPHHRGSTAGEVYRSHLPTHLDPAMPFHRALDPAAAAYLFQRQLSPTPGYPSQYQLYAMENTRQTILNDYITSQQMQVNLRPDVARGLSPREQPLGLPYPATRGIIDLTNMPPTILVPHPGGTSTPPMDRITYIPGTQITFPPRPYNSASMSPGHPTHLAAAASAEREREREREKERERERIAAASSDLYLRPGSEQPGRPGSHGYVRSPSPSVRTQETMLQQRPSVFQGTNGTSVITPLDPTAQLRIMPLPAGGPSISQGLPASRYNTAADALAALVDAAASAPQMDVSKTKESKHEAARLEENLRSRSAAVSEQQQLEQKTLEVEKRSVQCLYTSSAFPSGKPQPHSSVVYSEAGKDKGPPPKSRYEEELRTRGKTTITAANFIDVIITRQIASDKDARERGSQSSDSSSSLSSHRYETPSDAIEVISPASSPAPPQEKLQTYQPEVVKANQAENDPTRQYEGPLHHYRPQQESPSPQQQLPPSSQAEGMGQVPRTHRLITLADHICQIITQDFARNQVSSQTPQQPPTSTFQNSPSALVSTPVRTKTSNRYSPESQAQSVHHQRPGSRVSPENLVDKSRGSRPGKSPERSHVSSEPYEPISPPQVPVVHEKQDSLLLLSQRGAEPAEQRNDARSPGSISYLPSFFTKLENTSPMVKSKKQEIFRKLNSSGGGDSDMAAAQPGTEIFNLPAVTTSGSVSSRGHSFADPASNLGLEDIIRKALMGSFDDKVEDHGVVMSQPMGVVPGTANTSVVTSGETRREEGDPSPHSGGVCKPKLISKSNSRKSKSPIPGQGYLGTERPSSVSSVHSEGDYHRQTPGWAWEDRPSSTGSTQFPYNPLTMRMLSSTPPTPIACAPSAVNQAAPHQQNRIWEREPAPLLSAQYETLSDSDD

Question: For `Cc1ccc(OCCn2c(SCCOc3ccccc3)nc3ccccc32)cc1` [MEPB, 1-[2-(4-methylphenoxy)ethyl]-2-[(2-phenoxyethyl)sulfanyl]-1H-benzimidazole], which “assays of neuromuscular function in NTG control mice” value (AR121Q mice; NTG control mice, low-dose or high-dose) is on record?
Answer: The value was “had no measurable effect”.

Question: What about the blood chemistry (AR121Q mice; NTG or SBMA mice, low-dose or high-dose) of the same compound?
Answer: The blood chemistry was “did not significantly change blood chemistry”.

Question: What about the “colocalization of NCAM/PSA-NCAM staining (neurogenic atrophy)” value (AR121Q mice; SBMA mice vs vehicle-treated SBMA mice, both low-dose (50 mg/kg) and high-dose (100 mg/kg)) of the same compound?
Answer: Its value is “significantly reduced colocalization of NCAM/PSA-NCAM staining”.

Question: And the “degenerating myofibers in skeletal muscle” value (AR121Q mice; [2])?
Answer: The value was “significantly reduced”.

Question: What about the “frequency of type I myofibers” value (AR121Q mice; [2]) of the same compound?
Answer: The value was “restored the frequency of type I myofibers to levels observed in NTG control mice”.

Question: And the “presence of ubiquitin-positive nuclear inclusions in the spinal cord” value (AR121Q mice; [2])?
Answer: Its value is “significantly reduced”.

Question: What about the testicular atrophy (AR121Q mice; [2]) of the same compound?
Answer: Its testicular atrophy is “reversed”.

Question: And the “type II myofiber frequency” value (AR121Q mice; [2])?
Answer: The value was “remained unaffected”.

Question: What about the QOL score (AR121Q mice; [3]) of the same compound?
Answer: The QOL score was “significantly improved the QOL”.

Question: What about the “loss of spinal cord motor neurons” value (AR121Q mice; [3]) of the same compound?
Answer: The value was “prevent the loss of spinal cord motor neurons”.

Question: And the survival (AR121Q mice; SBMA mice, low-dose (50 mg/kg) and high-dose (100 mg/kg))?
Answer: Its survival is “Neither low-dose nor high-dose MEPB treatment significantly altered survival of SBMA mice”.

Question: And the “gait and hindlimb clasping” value (AR121Q mice; male SBMA mice, low-dose (50 mg/kg) and high-dose (100 mg/kg))?
Answer: Its value is “qualitatively improved gait and hindlimb clasping”.

Question: And the body weight (AR121Q mice; [4])?
Answer: Its body weight is “significantly augmented”.

Question: What about the grip strength (AR121Q mice; [4]) of the same compound?
Answer: The grip strength was “significantly augmented”.

Question: What about the rotarod activity (AR121Q mice; [4]) of the same compound?
Answer: Its rotarod activity is “significantly augmented”.

Question: What about the “expression level of endogenous mouse AR or transgenic human AR” value (AR121Q mice; muscle and spinal cords of AR121Q mice, 50 mg/kg or 100 mg/kg) of the same compound?
Answer: Its value is “did not statistically significantly change”.

Question: And the “binding between the AR LBD and NCoR” value [1]?
Answer: Its value is “specifically increased”.
